A short description of experiment [1]: Trypanosoma cruzi growth suppression in host cells – NIH3T3 host cells, beta-gal luminescence, confirmation (AID 2044).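 Also: intracellular parasites grown in NIH/3T3 mouse fibroblasts as host cells; luminescent beta-galactosidase reporter signal from transgenic T. cruzi replicating inside host cells; inhibitors lower the luminescence signal.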 The experiment is classed as functional, cell-based.
Experiment [2] in a line: NIH3T3 cell viability loss – ATP luminescence, mouse fibroblasts, counter-screen, dose response (AID 2010).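 Also: cells exposed to compound for about 90 hours before reading.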 The experiment is classed as functional, cell-based.
Experiment [3] concerns the target NACHT, LRR and PYD domains-containing protein 3 (Homo sapiens, UniProt Q96P20). As to the kind of experiment: NALP3 inhibitors in yeast, dose response, luminescent (AID 488799). The experiment is classed as functional.
Experiment [4] can be described thus: A Cell Based Secondary Assay To Explore Cytotoxicity of Compounds that Sensitize Mycobacterium Tuberculosis to Beta-Lactam Antibiotics. The experiment is classed as functional.
Experiment [5] concerns the target T1, Kappa-type opioid receptor (Homo sapiens, UniProt P41145). The experiment is described as follows: kappa opioid receptor activation potency – imaging, image-based, SAR follow-up (AID 2359). The experiment is classed as functional.
The target of experiment [6] is T2, Mu-type opioid receptor (Homo sapiens, UniProt P35372). As to the kind of experiment: HTS Image-Based Screen for Agonists of the MOR Receptor. [Related pubchem assays (depositor defined):AID1777, AID1785, AID1786, AID2133]. The experiment is classed as functional.
T2 sequence (P35372 whole entry): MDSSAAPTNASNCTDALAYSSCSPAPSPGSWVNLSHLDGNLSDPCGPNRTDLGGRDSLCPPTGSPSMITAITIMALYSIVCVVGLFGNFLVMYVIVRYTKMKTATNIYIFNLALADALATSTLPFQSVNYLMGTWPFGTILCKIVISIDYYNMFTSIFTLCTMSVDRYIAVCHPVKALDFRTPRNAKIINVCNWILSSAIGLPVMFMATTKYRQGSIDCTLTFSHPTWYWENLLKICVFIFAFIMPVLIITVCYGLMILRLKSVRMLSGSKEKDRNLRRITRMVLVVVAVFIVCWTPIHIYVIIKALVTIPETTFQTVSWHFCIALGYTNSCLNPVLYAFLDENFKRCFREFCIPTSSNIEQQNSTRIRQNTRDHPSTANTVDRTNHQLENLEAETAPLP
The target in experiment [7] is T2, Mu-type opioid receptor. The experiment is described as follows: mu opioid receptor activators, image-based, SAR follow-up (AID 2352). The experiment is classed as functional.
Experiment [8] has as its target T3, Delta-type opioid receptor (Homo sapiens, UniProt P41143). As to the kind of experiment: DOR agonists, SAR follow-up, image-based (AID 2370). The experiment is classed as functional.
The target in experiment [9] is T1, Kappa-type opioid receptor. The experiment is classed as functional.
The target in experiment [10] is T3, Delta-type opioid receptor. As to the kind of experiment: HTS Image-Based Screen for Agonists of the DOR Receptor. [Related pubchem assays (depositor defined):AID1777, AID1786, AID2133]. The experiment is classed as functional.
Experiment [11] concerns the target T3, Delta-type opioid receptor. As to the kind of experiment: HTS Image-Based Screen for Antagonists of the DOR Receptor. [Related pubchem assays (depositor defined):AID1777, AID1785, AID1786, AID2133]. The experiment is classed as functional.
The target of experiment [12] is T1, Kappa-type opioid receptor. The experiment is described as follows: SAR analysis of small molecule agonists of the kappa opioid receptor via a luminescent beta-arrestin assay. [Related pubchem assays (depositor defined):AID1777, AID1786, AID1966, AID2133, AID2136, AID2348, AID2352, AID2357, AID2359, AID2370, AID2420, AID2478, AID2491, AID2492, AID2493, AID2497, AID2498, AID2500, AID449737, AID488822, AID488842]. The experiment is classed as functional.

For experiment [13], the target named is T1, Kappa-type opioid receptor. The experiment is classed as functional. This is another data set of the same source.
Experiment [14] has as its target T3, Delta-type opioid receptor. As to the kind of experiment: delta opioid receptor blockers – image-based, SAR follow-up (AID 2357). The experiment is classed as functional.
For experiment [15], the target named is T2, Mu-type opioid receptor. As to the kind of experiment: mu opioid receptor blockers – image-based, SAR follow-up (AID 2420).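 Also: compounds added before stimulation of receptor with agonist DAMGO.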 The experiment is classed as functional.
In experiment [16] the target is T1, Kappa-type opioid receptor. As to the kind of experiment: kappa opioid receptor blockers, image-based, SAR follow-up (AID 2348). The experiment is classed as functional.
The target of experiment [17] is T4, Voltage-gated N-type calcium channel alpha-1B subunit/Amyloid beta A4 precursor protein-binding family A member 1 (Homo sapiens, UniProt Q00975+Q02410). The experiment is classed as protein assay.
T4 sequence (Q00975 whole entry): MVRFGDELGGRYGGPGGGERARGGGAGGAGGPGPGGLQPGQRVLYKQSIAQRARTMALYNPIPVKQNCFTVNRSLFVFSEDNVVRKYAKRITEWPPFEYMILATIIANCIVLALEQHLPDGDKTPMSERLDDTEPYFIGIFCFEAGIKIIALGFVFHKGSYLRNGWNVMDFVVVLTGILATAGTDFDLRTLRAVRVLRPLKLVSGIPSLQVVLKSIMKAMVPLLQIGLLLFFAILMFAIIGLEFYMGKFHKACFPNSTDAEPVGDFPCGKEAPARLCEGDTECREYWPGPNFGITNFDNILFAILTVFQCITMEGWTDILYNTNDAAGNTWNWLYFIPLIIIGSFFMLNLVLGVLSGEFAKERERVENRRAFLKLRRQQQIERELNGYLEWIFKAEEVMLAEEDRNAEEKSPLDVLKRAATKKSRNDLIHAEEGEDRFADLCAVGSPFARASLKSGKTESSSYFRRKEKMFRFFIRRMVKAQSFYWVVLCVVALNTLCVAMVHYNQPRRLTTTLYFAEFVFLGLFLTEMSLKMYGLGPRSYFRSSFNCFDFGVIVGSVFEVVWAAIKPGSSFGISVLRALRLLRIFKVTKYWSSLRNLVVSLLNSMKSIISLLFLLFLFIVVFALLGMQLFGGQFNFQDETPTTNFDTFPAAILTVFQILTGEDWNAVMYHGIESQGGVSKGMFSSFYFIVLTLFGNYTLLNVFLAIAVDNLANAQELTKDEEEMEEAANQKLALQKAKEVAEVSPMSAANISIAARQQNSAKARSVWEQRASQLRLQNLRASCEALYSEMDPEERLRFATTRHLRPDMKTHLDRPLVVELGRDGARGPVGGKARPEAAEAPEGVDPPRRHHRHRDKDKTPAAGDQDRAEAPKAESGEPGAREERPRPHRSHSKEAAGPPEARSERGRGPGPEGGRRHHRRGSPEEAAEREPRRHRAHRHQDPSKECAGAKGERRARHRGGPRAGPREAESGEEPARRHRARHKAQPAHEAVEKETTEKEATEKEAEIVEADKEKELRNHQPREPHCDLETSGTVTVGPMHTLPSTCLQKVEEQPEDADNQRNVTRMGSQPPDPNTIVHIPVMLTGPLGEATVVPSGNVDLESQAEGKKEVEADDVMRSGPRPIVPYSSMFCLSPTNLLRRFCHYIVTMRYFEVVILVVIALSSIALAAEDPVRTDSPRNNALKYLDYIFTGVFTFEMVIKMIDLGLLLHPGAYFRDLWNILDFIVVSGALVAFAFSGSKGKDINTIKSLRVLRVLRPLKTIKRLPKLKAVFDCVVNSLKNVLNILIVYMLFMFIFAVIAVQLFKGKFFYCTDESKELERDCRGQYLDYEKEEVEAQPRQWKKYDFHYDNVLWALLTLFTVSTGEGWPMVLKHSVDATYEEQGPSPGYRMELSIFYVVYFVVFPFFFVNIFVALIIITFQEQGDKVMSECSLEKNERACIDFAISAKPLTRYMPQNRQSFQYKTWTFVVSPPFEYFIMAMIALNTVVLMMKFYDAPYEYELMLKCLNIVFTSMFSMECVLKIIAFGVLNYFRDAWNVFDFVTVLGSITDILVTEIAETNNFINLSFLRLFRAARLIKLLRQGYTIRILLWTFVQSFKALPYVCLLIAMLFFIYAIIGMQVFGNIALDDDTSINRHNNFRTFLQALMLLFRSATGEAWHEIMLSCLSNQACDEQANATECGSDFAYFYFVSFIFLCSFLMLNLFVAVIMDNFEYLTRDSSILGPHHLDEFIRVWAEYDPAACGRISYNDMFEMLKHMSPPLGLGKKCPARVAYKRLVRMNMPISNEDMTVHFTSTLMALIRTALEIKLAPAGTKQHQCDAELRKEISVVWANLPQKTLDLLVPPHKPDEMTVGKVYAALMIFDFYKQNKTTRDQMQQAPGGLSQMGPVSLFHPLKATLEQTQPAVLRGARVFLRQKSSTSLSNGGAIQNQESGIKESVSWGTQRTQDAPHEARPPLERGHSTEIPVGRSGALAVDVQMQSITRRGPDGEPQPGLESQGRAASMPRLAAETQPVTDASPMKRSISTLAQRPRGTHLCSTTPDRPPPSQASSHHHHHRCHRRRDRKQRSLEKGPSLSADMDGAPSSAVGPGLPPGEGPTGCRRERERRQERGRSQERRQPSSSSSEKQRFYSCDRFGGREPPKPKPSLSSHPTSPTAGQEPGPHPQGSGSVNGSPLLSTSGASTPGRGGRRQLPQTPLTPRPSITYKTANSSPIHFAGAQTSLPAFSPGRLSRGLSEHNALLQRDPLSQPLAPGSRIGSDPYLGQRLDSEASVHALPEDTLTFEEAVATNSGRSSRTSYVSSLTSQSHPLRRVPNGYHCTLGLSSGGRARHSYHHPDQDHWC
T4 sequence (Q02410 whole entry): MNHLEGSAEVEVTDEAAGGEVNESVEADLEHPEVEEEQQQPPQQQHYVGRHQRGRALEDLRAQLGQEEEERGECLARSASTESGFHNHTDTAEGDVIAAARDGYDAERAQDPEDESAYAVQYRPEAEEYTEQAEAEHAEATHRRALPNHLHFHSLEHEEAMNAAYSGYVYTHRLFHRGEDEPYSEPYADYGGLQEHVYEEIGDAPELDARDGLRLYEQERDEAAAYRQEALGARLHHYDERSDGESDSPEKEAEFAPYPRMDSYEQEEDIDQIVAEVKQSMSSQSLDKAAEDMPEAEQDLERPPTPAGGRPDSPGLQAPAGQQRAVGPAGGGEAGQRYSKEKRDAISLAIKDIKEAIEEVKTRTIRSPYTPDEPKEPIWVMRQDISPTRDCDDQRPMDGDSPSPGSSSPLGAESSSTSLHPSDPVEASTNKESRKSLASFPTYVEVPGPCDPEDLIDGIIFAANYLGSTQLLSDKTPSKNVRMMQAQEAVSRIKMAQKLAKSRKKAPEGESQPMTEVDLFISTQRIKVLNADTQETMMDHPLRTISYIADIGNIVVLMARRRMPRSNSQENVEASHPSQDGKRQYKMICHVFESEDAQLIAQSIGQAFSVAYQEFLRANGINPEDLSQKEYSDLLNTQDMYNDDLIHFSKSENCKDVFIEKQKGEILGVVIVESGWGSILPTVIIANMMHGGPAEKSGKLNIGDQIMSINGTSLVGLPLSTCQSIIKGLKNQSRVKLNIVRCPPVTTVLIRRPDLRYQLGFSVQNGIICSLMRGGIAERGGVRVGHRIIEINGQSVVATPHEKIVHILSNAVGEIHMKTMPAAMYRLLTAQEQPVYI
Experiment [18] has as its target T4, Voltage-gated N-type calcium channel alpha-1B subunit/Amyloid beta A4 precursor protein-binding family A member 1. As to the kind of experiment: disruptors of Mint-PDZ/N-type channel peptide interaction – biochemical, HTRF, SAR follow-up (AID 2489). The experiment is classed as functional. Background: TR-FRET usually uses a lanthanide donor and a delayed reading to cut background.

Experiment [19] shares this target. The experiment is classed as protein assay. The source holds these as a separate data set.
Experiment [20] has the same target. The experiment is described as follows: disruptors of Mint-PDZ/N-type channel peptide interaction – biochemical, HTRF, set 2, SAR follow-up (AID 434980). The experiment is classed as functional.
Experiment [21] has as its target Prothrombin (Bos taurus, UniProt P00735). As to the kind of experiment: thrombin protease inhibitors – biochemical, fluorescence polarization, uHTS hits, dose response (AID 602369). The experiment is classed as functional. (In general: In fluorescence polarisation assays a small probe gives low polarisation when free and higher when bound to something large.)
Experiment [22] has as its target T5, Runt-related transcription factor 1/Core-binding factor subunit beta (Homo sapiens, UniProt Q01196+Q13951). As to the kind of experiment: Runt domain/CBFb-SMMHC interaction disruptors – biochemical, TR-FRET (AID 1438). The experiment is classed as protein assay.
Experiment [23] has as its target T6, Probable nicotinate-nucleotide adenylyltransferase (Staphylococcus aureus (strain N315), UniProt P65502). The experiment is classed as functional, Staphylococcus aureus subsp. aureus N315. To be noted: read-out: IC50_Mean.
Experiment [24] addresses Induced myeloid leukemia cell differentiation protein Mcl-1 (Homo sapiens, UniProt Q07820). The experiment is classed as functional.
Experiment [25] deals with T5, Runt-related transcription factor 1/Core-binding factor subunit beta. The experiment is described as follows: disruptors of Runt domain/CBFb-SMMHC interaction – biochemical, FRET, Cerulean-Runt, Venus-CBFb-SMMHC, uHTS, […] (AID 1434). The experiment is classed as protein assay.
The target in experiment [26] is 72 kDa type IV collagenase (Homo sapiens, UniProt P08253). The experiment is described as follows: Dose Response validation of uHTS RPN11 inhibitor hits using a MMP-2 Fluorescence assay. The experiment is classed as functional.
Experiment [27] deals with T6, Probable nicotinate-nucleotide adenylyltransferase. The experiment is classed as functional, Staphylococcus aureus subsp. aureus N315.
The target of experiment [28] is 26S proteasome non-ATPase regulatory subunit 14 (Homo sapiens, UniProt O00487). As to the kind of experiment: inhibition of proteasome subunit RPN11 – biochemical, fluorescence polarization, uHTS hits, confirmation (AID 602368). The experiment is classed as functional.
26S proteasome non-ATPase regulatory subunit 14, sequence (O00487 whole entry): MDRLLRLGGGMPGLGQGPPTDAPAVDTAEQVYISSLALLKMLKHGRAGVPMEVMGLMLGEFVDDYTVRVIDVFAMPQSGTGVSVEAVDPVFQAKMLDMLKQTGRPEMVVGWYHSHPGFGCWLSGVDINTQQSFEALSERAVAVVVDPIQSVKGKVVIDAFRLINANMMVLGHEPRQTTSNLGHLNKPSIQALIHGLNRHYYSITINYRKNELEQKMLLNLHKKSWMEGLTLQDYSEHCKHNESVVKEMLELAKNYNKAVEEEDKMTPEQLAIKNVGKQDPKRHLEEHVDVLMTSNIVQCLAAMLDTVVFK

SMILES strings stand for the structures. Active and inactive are the calls of the source.
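For IC50 Mean in this document: confirmatory dose-response retesting of NadD inhibitor hits first found in an ultra-high-throughput screen.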

T3 sequence (P41143 whole entry): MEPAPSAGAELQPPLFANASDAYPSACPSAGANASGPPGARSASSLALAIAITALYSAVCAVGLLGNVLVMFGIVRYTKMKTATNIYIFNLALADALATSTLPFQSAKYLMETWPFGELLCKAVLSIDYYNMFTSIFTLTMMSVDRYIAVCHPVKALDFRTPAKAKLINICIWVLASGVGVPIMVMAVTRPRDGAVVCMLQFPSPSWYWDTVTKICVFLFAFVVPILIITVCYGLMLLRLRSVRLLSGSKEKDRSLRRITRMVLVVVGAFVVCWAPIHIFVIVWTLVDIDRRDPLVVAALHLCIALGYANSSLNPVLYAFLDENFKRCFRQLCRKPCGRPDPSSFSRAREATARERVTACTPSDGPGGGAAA
T1 sequence (P41145 whole entry): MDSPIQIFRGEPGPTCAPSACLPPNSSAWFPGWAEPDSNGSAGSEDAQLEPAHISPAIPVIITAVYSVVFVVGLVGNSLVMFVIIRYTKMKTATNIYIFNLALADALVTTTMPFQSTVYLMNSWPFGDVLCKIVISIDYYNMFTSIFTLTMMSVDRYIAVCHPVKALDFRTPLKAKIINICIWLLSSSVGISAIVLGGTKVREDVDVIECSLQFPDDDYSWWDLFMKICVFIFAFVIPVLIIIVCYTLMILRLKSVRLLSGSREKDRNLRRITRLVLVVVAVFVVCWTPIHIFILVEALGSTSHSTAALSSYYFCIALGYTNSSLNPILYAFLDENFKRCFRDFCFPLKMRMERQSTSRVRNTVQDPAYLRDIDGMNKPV
T6 sequence (P65502 whole entry): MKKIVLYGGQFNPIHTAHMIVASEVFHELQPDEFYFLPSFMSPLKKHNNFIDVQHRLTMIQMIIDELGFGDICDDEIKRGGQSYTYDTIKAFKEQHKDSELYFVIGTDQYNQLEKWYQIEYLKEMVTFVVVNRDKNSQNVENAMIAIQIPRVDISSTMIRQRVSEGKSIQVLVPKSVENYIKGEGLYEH

One may read the EC50 as the concentration needed to bring the measured effect to its halfway point. The CC50 is the concentration giving 50% cytotoxicity. Turning to `O=C(CCS(=O)(=O)c1ccccc1)N(CCCN1CCOCC1)c1nc2c(F)cccc2s1`, the EC50 is 3.11 µM (active) in experiment [1] and 4.45 µM (active) in experiment [2]. Also, the IC50 in [3] is 2.07 µM (active). In experiment [4], the CC50 was > 40 µM (active).

In the case of `CCC(C)(C(=O)NC1CCCCC1)N(Cc1ccco1)C(=O)c1cnccn1` (stereo not drawn), the EC50 in experiment [5] was 1.36 µM (active); in experiment [6], > 32 µM (inactive); in experiment [7], > 32 µM (inactive); in [8], > 32 µM (inactive); in experiment [9] it was 2470 nM; in experiment [10], > 32 µM (inactive). Also, the EC50 in experiment [12] is 3.71 µM (active); in experiment [13] it was 1750 nM. The IC50 in experiment [11], in [14], in experiment [15] and in experiment [16] was > 32 µM (inactive) each time.

On to `CN(CCC#N)C(=O)COC(=O)c1c2c(nc3ccccc13)/C(=C/c1ccco1)CC2`, for which the IC50 in experiment [17] was 6.34 µM (active); in experiment [18], 6.19 µM (active); in [19] it was 3.22 µM (active); in experiment [20], 2.82 µM (active); in [21], 6.71 µM (active); in experiment [22], > 100 µM (inactive). Moreover, the IC50 in [23] was 16.9 µM (active); in experiment [24], 1.44 µM (active); in experiment [25], 62.4 µM (inactive); in experiment [26] it was > 100 µM (inactive); in experiment [27], 7.86 µM (active); in experiment [28] it was 4.76 µM (active).

Source of the values: ChEMBL document CHEMBL1201862, “PubChem BioAssay data set” (2004).
